The values below are quoted from earlier work in patent US20230095695A1, “RNAS FOR COMPLEMENT INHIBITION” (Apellis Pharmaceuticals, Inc., priority 2020, published 2023).

For the data set, the system named is complement activation. The settings on record: relative to compstatin amidated at the C-terminus; based on published data; cited from earlier work.

Non-standard residues stand in square brackets, D forms with d. Trp(5-F) = N[C@@H](Cc1c[nH]c2ccc(F)cc12)C(=O)O; Trp(5-Me) = Cc1ccc2[nH]cc(C[C@H](N)C(=O)O)c2c1; Trp(6-F) = N[C@@H](Cc1c[nH]c2cc(F)ccc12)C(=O)O; Bpa = N[C@@H](Cc1ccc(C(=O)c2ccccc2)cc1)C(=O)O; 2Nal = N[C@@H](Cc1ccc2ccccc2c1)C(=O)O; Dht = not defined here

With “Ac-ICV(2-Nal)QDWGAHRCT-CONH2 (Ac-ICV[2Nal]QDWGAHRCT-NH2; not fully specified (bridges); printed as Ac-ICV(2-Nal)QDWGAHRCT-CONH2; cysteine pairing not given here) [Ac-V4(2-Nal)/H9A]”, the Activity over compstatin is reported as 99× more.

Turning to “Ac-ICV(2-Nal)QDWGAHRCT-COOH (Ac-ICV[2Nal]QDWGAHRCT-OH; not fully specified (bridges); printed as Ac-ICV(2-Nal)QDWGAHRCT-COOH; cysteine pairing not given here) [AcV4(2-Nal)/H9A-OH]”, the Activity over compstatin is listed as 38× more. For the substance “Ac-ICV(5-methyl-W)QDWGAHRCT-CONH2 (Ac-ICV[Trp(5-Me)]QDWGAHRCT-NH2; not fully specified (bridges); printed as Ac-ICV(5-methyl-W)QDWGAHRCT-CONH2; cysteine pairing not given here) [Ac-V4(5-MeW)/H9A]”, the Activity over compstatin is 67× more. For the substance “Ac-ICV(5fW)QDWGAHRCT-CONH2 (Ac-ICV[Trp(5-F)]QDWGAHRCT-NH2; not fully specified (bridges); printed as Ac-ICV(5fW)QDWGAHRCT-CONH2; cysteine pairing not given here) [Ac-V4(5fW)/H9A]”, the Activity over compstatin is recorded as 31× more. Consider “Ac-ICV(Bpa)QDWGAHRCT-CONH2 (Ac-ICV[Bpa]QDWGAHRCT-NH2; not fully specified (bridges); printed as Ac-ICV(Bpa)QDWGAHRCT-CONH2; cysteine pairing not given here) [Ac-V4(Bpa)/H9A]”, for which the Activity over compstatin was 86× more.

For “Ac-ICV(Bpa)QDWGAHRCT-COOH (Ac-ICV[Bpa]QDWGAHRCT-OH; not fully specified (bridges); printed as Ac-ICV(Bpa)QDWGAHRCT-COOH; cysteine pairing not given here) [Ac-V4(Bpa)/H9A-OH]”, the Activity over compstatin was 49× more. For “Ac-ICV(Dht)QDWGAHRCT-COOH (Ac-ICV[Dht]QDWGAHRCT-OH; not fully specified (bridges); printed as Ac-ICV(Dht)QDWGAHRCT-COOH; cysteine pairing not given here; reading uncertain) [Ac-V4Dht/H9A-OH]”, the Activity over compstatin is 5× more.

On to Ac-ICVVQDWGHHRCT-CONH2 [Ac-compstatin], for which the Activity over compstatin is recorded as 3× more. For the substance “Ac-ICVWQDWGAHRCT-CONH2 (Ac-ICVWQDWGAHRCT-NH2; not fully specified (bridges); printed as Ac-ICVWQDWGAHRCT-CONH2; cysteine pairing not given here) [AC-V4W/H9A]”, the Activity over compstatin is recorded as 45× more. Consider “Ac-ICVWQDWGAHRCdT-COOH [AC-V4W/H9A/T13dT-OH]”, for which the Activity over compstatin is reported as 55× more. Take Ac-ICVYQDWGAHRCT-CONH2 [AC-V4Y/H9A]: the Activity over compstatin is recorded as 14× more.

As for “H-GICV(6fW)QD(6fW)GAHRCTN-COOH (H-GICV[Trp(6-F)]QD[Trp(6-F)]GAHRCTN-OH; not fully specified (bridges); cysteine pairing not given here) [+GA/4(6fW)/W7(6fW)H9A+N-OH]”, the Activity over compstatin was 126× more.
